Experimental findings from article PMC12508057, “Discovery of ETI41 and ETI60: novel selective endosomal Toll-like receptor inhibitors for the treatment of autoimmune diseases” (Experimental & Molecular Medicine, 2025) are described below.

One may read the IC50 as the concentration that gives 50% inhibition.

In one test the target is T1, TLR7 (Mus musculus, UniProt P58681).
T1 construct: endogenous in cells; host or cells: RAW 264.7
T1 sequence (P58681 27-1050): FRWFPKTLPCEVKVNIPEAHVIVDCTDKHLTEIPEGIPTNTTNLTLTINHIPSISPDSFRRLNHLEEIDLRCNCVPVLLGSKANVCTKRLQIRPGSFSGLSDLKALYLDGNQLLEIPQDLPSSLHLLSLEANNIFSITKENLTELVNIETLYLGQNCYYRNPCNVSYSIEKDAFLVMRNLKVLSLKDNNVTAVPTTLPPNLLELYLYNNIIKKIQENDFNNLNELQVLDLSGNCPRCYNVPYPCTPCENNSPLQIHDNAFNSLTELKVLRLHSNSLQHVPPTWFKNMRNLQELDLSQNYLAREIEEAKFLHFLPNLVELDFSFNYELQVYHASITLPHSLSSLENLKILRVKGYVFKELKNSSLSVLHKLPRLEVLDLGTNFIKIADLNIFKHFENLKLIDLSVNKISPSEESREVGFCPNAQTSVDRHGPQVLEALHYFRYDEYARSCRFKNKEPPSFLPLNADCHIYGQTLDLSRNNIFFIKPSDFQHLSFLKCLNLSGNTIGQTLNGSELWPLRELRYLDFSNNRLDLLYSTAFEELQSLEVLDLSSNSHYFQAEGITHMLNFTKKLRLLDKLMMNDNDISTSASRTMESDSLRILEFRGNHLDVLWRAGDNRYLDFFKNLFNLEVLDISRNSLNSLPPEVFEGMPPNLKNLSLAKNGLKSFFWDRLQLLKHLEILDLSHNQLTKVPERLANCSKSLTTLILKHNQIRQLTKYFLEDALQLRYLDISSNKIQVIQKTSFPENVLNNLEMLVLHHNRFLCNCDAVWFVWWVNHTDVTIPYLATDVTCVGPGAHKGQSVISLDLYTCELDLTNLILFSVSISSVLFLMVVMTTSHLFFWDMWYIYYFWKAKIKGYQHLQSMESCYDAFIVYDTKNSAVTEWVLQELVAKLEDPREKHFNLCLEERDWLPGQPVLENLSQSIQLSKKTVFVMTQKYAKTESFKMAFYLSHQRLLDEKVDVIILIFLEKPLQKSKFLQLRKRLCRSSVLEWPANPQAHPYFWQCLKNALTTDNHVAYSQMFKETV
Description: TLR7 inhibition, TNF-α secretion (ELISA) in RAW 264.7. It counts as cell-based. The conditions noted are these: for TLR7 TI value: therapeutic index, RAW 264.7. Here is the method: RAW 264.7 and differentiated THP-1 cells were seeded into 96-well plates at 2 × 10^4 cells per well, while Daudi cells were seeded at 5 × 10^4 cells per well. After stabilization for 30 min, cells were stimulated with specific TLR agonists for 4 or 24 h. Supernatants were diluted and transferred to precoated ELISA plates to measure TNF-α secretion using kits from Invitrogen. Optical absorbance was measured using a BioTek Synergy HTX multimode microplate reader, and data were interpolated using BioTek Gen5 software.
One-tailed paired Student’s t-tests were performed using Microsoft Excel (Microsoft). Semi-logarithmic conversions and nonregression curve analyses for calculating 50% lethal concentration (LC50) and 50% inhibitory concentration (IC50) values were conducted using GraphPad Prism 7.0 (GraphPad). The therapeutic index was calculated as […]. Animal experimental results are expressed as mean ± standard deviation and analyzed using SPSS v.20 (IBM SPSS Statistics). Homogeneity of variance was assessed using Levene’s test.
The cells were activated with agonistic ligands: […], TLR3 (poly I:C, 2 μg/ml, 24 h), TLR4 (LPS, 10 or 100 ng/ml, 4 h), TLR5 (FLA-ST, 500 ng/ml, 4 h), TLR7 (ORN06/LyoVec, 2 μg/ml, 24 h; and IMQ, 1 μg/ml, 4 h), TLR8 (TL8-506, 2 μg/ml, 24 h) and TLR9 (ODN2395, 1 μM, 4 h) at various concentrations in RAW 264.7 cells, human Daudi cells and THP-1 cells. Data are from at least three independent experiments (n = 3) and statistical differences between the induced case and other cases were analyzed and verified using a one-tailed Student’s t-test (*P < 0.05, **P < 0.01, ***P < 0.001).
A general note: An ELISA detects its analyte on a solid surface through an enzyme-linked reagent.

In another test the target is T2, TLR9 (Mus musculus, UniProt Q9EQU3).
T2 construct: RAW 264.7 and differentiated THP-1 cells were seeded into 96-well plates; endogenous in cells; host or cells: RAW 264.7
T2 sequence (Q9EQU3 26-1032): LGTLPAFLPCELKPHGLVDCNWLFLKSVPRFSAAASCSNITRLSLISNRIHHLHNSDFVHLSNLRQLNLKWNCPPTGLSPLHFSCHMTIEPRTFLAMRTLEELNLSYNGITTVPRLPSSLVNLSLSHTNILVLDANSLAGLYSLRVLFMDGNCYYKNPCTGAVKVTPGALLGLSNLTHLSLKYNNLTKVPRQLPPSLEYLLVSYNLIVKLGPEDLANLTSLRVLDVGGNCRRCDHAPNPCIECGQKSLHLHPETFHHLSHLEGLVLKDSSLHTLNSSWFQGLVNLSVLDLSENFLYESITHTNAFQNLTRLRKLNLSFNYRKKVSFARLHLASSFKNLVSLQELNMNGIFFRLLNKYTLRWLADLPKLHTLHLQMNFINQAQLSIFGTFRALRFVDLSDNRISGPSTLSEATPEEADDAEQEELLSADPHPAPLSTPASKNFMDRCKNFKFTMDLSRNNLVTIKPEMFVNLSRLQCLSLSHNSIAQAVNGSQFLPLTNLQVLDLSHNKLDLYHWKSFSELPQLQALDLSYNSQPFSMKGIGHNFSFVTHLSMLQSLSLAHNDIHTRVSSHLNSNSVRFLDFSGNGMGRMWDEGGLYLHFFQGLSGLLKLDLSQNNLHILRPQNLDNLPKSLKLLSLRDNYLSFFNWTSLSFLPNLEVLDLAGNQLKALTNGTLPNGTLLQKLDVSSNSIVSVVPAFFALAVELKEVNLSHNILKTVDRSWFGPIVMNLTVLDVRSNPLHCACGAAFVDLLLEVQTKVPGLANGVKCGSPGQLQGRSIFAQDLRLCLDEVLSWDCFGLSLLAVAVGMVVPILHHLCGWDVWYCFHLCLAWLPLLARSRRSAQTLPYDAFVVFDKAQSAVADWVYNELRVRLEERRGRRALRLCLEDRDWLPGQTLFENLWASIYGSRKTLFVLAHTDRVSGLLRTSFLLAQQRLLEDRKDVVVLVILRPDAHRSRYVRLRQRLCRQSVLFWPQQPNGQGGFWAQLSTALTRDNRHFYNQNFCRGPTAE
Description: Real-time quantitative PCR in BMDCs stimulated with ODN2395. The format is cell-based. The conditions noted are these: primary BMDCs, 0.2 and 1 μM, ODN2395 1 μM.

Where two headings read alike, the source gives them in different places.

Description for TLR9: Bone marrow cells from 8-week-old C57BL/6 mice (Jackson Laboratory) were cultured in RPMI 1640 with 20 ng/ml granulocyte-macrophage colony-stimulating factor (GM-CSF; Thermo Fisher Scientific) for 8 days. Bone marrow-derived dendritic cell (BMDC) purity was confirmed by fluorescence-activated cell sorting (FACS), showing 84% F4/80^− and CD11c^+ cells. […] Total mRNA was extracted using TRIzol reagent (Thermo Fisher Scientific) and reverse transcribed using the ReverTra Ace qPCR RT Kit (Toyobo). mRNA levels were determined using SYBR Green PCR Master Mix (Kapa Biosystems) and a CFX Connect RT-PCR System (Bio-Rad). Primers used were directed against IL-12p40, IFN-β, CD40 and GAPDH.
All experiments were independently conducted three times.

On to `Cc1cc2c(N)c3c(nc2n1CCCN(C)C)CCCCCC3` [ETI41], for which, on TLR7, the IC50 worked out at 630 nM and the “TLR7 TI value” is 106.63. Further, at TLR9, the “Production of IL-12p40, IFN-β and CD40 (mRNA)” value is recorded as “significantly inhibited”.
For the compound `COc1ccc2c3c(N)c4c(nc3n(CCCN(C)C)c2c1)CCCC4` [ETI60], on TLR7 (RAW 264.7 cell line, read-out: TLR7 IC50 (mTNFα)), the IC50 worked out at 680 nM. Further, the “TLR7 TI value” at TLR7 was determined as 75.65.
